From ChEMBL document CHEMBL1201862, “PubChem BioAssay data set” (2004)
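Protocol summary: plate cells (96-well), add compound at 5 concentrations, incubate 48 h, interpolate endpoints linearly. At the GI50, growth is halved.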 Activity calls are given as the source filed them. No stated cut-off is given here; in the data, active = GI50 up to about 1.1 µM and inactive = higher.

Experiments:
Assay in all cases: NCI anticancer screen, dose series, 48 h
SK-MEL-5 = tested on: SK-MEL-5
LOX IMVI = tested on: LOX IMVI
SN12C = tested on: SN12C
TK-10 = tested on: TK-10
IGROV-1 = tested on: IGROV-1
DLD-1 = tested on: DLD-1
K562 = tested on: K562
UACC-257 = tested on: UACC-257
SW-620 = tested on: SW-620
DMS-273 = tested on: DMS-273
UACC-62 = tested on: UACC-62
HCT-116 = tested on: HCT-116
ACHN = tested on: ACHN
CCRF-CEM = tested on: CCRF-CEM
OVCAR-4 = tested on: OVCAR-4
HOP-62 = tested on: HOP-62
NCI-H23 = tested on: NCI-H23
A549 = tested on: A549
HOP-18 = tested on: HOP-18
SNB-75 = tested on: SNB-75
RPMI-8226 = tested on: RPMI-8226
OVCAR-3 = tested on: OVCAR-3
M19-MEL = tested on: M19-MEL
Malme-3M = tested on: Malme-3M
LXFL 529 = tested on: LXFL 529
U-251 = tested on: U-251
SNB-19 = tested on: SNB-19
OVCAR-8 = tested on: OVCAR-8
HT-29 = tested on: HT-29
UO-31 = tested on: UO-31
KM12 = tested on: KM12
CAKI-1 = tested on: CAKI-1
HCT-15 = tested on: HCT-15
M14 = tested on: M14
SF-295 = tested on: SF-295
NCI-H226 = tested on: NCI-H226
DMS-114 = tested on: DMS-114
OVCAR-5 = tested on: OVCAR-5
HCC 2998 = tested on: HCC 2998
KM-20L2 = tested on: KM-20L2
A498 = tested on: A498
786-0 = tested on: 786-0
NCI-H460 = tested on: NCI-H460
SR = tested on: SR
XF498 = tested on: XF498
RXF 631 = tested on: RXF 631
SK-MEL-2 = tested on: SK-MEL-2
SK-MEL-28 = tested on: SK-MEL-28
SK-OV-3 = tested on: SK-OV-3
HOP-92 = tested on: HOP-92
NCI-H522 = tested on: NCI-H522
HL-60 = tested on: HL-60
COLO 205 = tested on: COLO 205
SF-268 = tested on: SF-268
SF-539 = tested on: SF-539
MOLT-4 = tested on: MOLT-4
EKVX = tested on: EKVX
SNB-78 = tested on: SNB-78
RXF 393 = tested on: RXF 393

CC(C)(O)[C@@H]1CC[C@@]2(C)CCC[C@H](O)[C@H]2C1
GI50 (SK-MEL-5): > 100 µM (inactive) | GI50 (LOX IMVI): > 100 µM (inactive) | GI50 (SN12C): > 100 µM (inactive) | GI50 (TK-10): > 100 µM (inactive) | GI50 (IGROV-1): > 100 µM (inactive) | GI50 (DLD-1): > 100 µM (inactive) | GI50 (K562): > 100 µM (inactive) | GI50 (UACC-257): > 100 µM (inactive) | GI50 (SW-620): > 100 µM (inactive) | GI50 (DMS-273): > 100 µM (inactive) | GI50 (UACC-62): > 100 µM (inactive) | GI50 (HCT-116): > 100 µM (inactive) | GI50 (ACHN): > 100 µM (inactive) | GI50 (CCRF-CEM): > 100 µM (inactive) | GI50 (OVCAR-4): > 100 µM (inactive) | GI50 (HOP-62): > 100 µM (inactive) | GI50 (NCI-H23): > 100 µM (inactive) | GI50 (A549): > 100 µM (inactive) | GI50 (HOP-18): > 100 µM (inactive) | GI50 (SNB-75): > 100 µM (inactive) | GI50 (RPMI-8226): > 100 µM (inactive) | GI50 (OVCAR-3): > 100 µM (inactive) | GI50 (M19-MEL): > 100 µM (inactive) | GI50 (Malme-3M): > 100 µM (inactive) | GI50 (LXFL 529): > 100 µM (inactive) | GI50 (U-251): > 100 µM (inactive) | GI50 (SNB-19): > 100 µM (inactive) | GI50 (OVCAR-8): > 100 µM (inactive) | GI50 (HT-29): > 100 µM (inactive) | GI50 (UO-31): > 100 µM (inactive) | GI50 (KM12): > 100 µM (inactive) | GI50 (CAKI-1): > 100 µM (inactive) | GI50 (HCT-15): > 100 µM | GI50 (M14): > 100 µM (inactive) | GI50 (SF-295): > 100 µM (inactive) | GI50 (NCI-H226): > 100 µM (inactive) | GI50 (DMS-114): > 100 µM (inactive) | GI50 (OVCAR-5): > 100 µM (inactive) | GI50 (HCC 2998): > 100 µM (inactive) | GI50 (KM-20L2): > 100 µM (inactive) | GI50 (A498): > 100 µM (inactive) | GI50 (786-0): > 100 µM (inactive) | GI50 (NCI-H460): > 100 µM (inactive) | GI50 (SR): > 100 µM (inactive) | GI50 (XF498): > 100 µM (inactive) | GI50 (RXF 631): > 100 µM (inactive) | GI50 (SK-MEL-2): > 100 µM (inactive) | GI50 (SK-MEL-28): > 100 µM (inactive) | GI50 (SK-OV-3): > 100 µM (inactive) | GI50 (HOP-92): > 100 µM (inactive) | GI50 (NCI-H522): > 100 µM (inactive) | GI50 (HL-60): > 100 µM (inactive) | GI50 (COLO 205): > 100 µM (inactive) | GI50 (SF-268): > 100 µM (inactive) | GI50 (SF-539): > 100 µM (inactive) | GI50 (MOLT-4): > 100 µM (inactive)

COC(=O)c1c[nH]cc1CCCCc1c[nH]cc1C(=O)OC
GI50 (LOX IMVI): > 100 µM (inactive) | GI50 (SN12C): > 100 µM (inactive) | GI50 (TK-10): > 100 µM (inactive) | GI50 (IGROV-1): > 100 µM (inactive) | GI50 (K562): > 100 µM (inactive) | GI50 (UACC-257): > 100 µM (inactive) | GI50 (SW-620): > 100 µM (inactive) | GI50 (DMS-273): > 100 µM (inactive) | GI50 (EKVX): > 100 µM (inactive) | GI50 (HCT-116): > 100 µM (inactive) | GI50 (ACHN): > 100 µM (inactive) | GI50 (CCRF-CEM): > 100 µM (inactive) | GI50 (OVCAR-4): > 100 µM (inactive) | GI50 (HOP-62): > 100 µM (inactive) | GI50 (NCI-H23): > 100 µM (inactive) | GI50 (A549): > 100 µM (inactive) | GI50 (HOP-18): > 100 µM (inactive) | GI50 (OVCAR-3): > 100 µM (inactive) | GI50 (M19-MEL): > 100 µM (inactive) | GI50 (Malme-3M): > 100 µM (inactive) | GI50 (U-251): > 100 µM (inactive) | GI50 (SNB-19): > 100 µM (inactive) | GI50 (OVCAR-8): > 100 µM (inactive) | GI50 (HT-29): > 100 µM (inactive) | GI50 (KM12): > 100 µM (inactive) | GI50 (CAKI-1): > 100 µM (inactive) | GI50 (SF-295): 73.3 µM (inactive) | GI50 (SNB-78): > 100 µM (inactive) | GI50 (NCI-H226): > 100 µM (inactive) | GI50 (RXF 393): > 100 µM (inactive) | GI50 (OVCAR-5): > 100 µM (inactive) | GI50 (HCC 2998): > 100 µM (inactive) | GI50 (KM-20L2): > 100 µM (inactive) | GI50 (A498): > 100 µM (inactive) | GI50 (786-0): 89.1 µM (inactive) | GI50 (NCI-H460): > 100 µM (inactive) | GI50 (SR): > 100 µM (inactive) | GI50 (XF498): 50 µM (inactive) | GI50 (RXF 631): > 100 µM (inactive) | GI50 (SK-MEL-2): > 100 µM (inactive) | GI50 (SK-MEL-28): > 100 µM (inactive) | GI50 (SK-OV-3): > 100 µM (inactive) | GI50 (HOP-92): 58.6 µM (inactive) | GI50 (NCI-H522): > 100 µM (inactive) | GI50 (HL-60): 73.3 µM (inactive) | GI50 (COLO 205): > 100 µM (inactive) | GI50 (SF-268): > 100 µM (inactive) | GI50 (SF-539): > 100 µM (inactive) | GI50 (MOLT-4): > 100 µM (inactive)

COc1ccccc1NC(=O)C1=C(C)NC(C)=C(C(=O)Nc2ccccc2OC)C1c1cccc2ccccc12
GI50 (SK-MEL-5): 34.4 µM (inactive) | GI50 (LOX IMVI): > 100 µM (inactive) | GI50 (SN12C): > 100 µM (inactive) | GI50 (TK-10): > 100 µM (inactive) | GI50 (IGROV-1): > 100 µM (inactive) | GI50 (DLD-1): 38.7 µM (inactive) | GI50 (K562): 13.3 µM (inactive) | GI50 (UACC-257): > 100 µM (inactive) | GI50 (SW-620): > 100 µM (inactive) | GI50 (DMS-273): 80.9 µM (inactive) | GI50 (EKVX): > 100 µM (inactive) | GI50 (UACC-62): > 100 µM (inactive) | GI50 (HCT-116): 23.8 µM (inactive) | GI50 (ACHN): 11.7 µM (inactive) | GI50 (CCRF-CEM): 20.7 µM (inactive) | GI50 (OVCAR-4): 2.77 µM (inactive) | GI50 (NCI-H23): 21.7 µM (inactive) | GI50 (A549): 21.9 µM (inactive) | GI50 (HOP-18): 76.7 µM (inactive) | GI50 (SNB-75): 14.3 µM (inactive) | GI50 (RPMI-8226): 9.29 µM (inactive) | GI50 (OVCAR-3): 64 µM (inactive) | GI50 (M19-MEL): 90.4 µM (inactive) | GI50 (Malme-3M): 38.6 µM (inactive) | GI50 (LXFL 529): 28.1 µM (inactive) | GI50 (U-251): > 100 µM (inactive) | GI50 (SNB-19): 53 µM (inactive) | GI50 (OVCAR-8): > 100 µM (inactive) | GI50 (HT-29): 82.8 µM (inactive) | GI50 (UO-31): 13.7 µM (inactive) | GI50 (KM12): 37.8 µM (inactive) | GI50 (CAKI-1): 68.1 µM (inactive) | GI50 (HCT-15): 28.4 µM | GI50 (M14): > 100 µM (inactive) | GI50 (SF-295): 90.6 µM (inactive) | GI50 (SNB-78): 4.44 µM (inactive) | GI50 (NCI-H226): 50.7 µM (inactive) | GI50 (DMS-114): 25.6 µM (inactive) | GI50 (RXF 393): 21.2 µM (inactive) | GI50 (OVCAR-5): > 100 µM (inactive) | GI50 (HCC 2998): 83.8 µM (inactive) | GI50 (KM-20L2): > 100 µM (inactive) | GI50 (A498): 33.9 µM (inactive) | GI50 (786-0): > 100 µM (inactive) | GI50 (NCI-H460): 20.1 µM (inactive) | GI50 (XF498): 45.3 µM (inactive) | GI50 (RXF 631): 87.9 µM (inactive) | GI50 (SK-MEL-2): > 100 µM (inactive) | GI50 (SK-MEL-28): 62.7 µM (inactive) | GI50 (SK-OV-3): > 100 µM (inactive) | GI50 (HOP-92): 1.38 µM (inactive) | GI50 (HL-60): 29.9 µM (inactive) | GI50 (COLO 205): > 100 µM (inactive) | GI50 (SF-268): 29.4 µM (inactive) | GI50 (SF-539): > 100 µM (inactive) | GI50 (MOLT-4): 10.6 µM (inactive)
